Reference: patent US20080287299A1, “Use of Imidazole and/or Triazole Derivatives for Combating Plant Pests; as Well as Method for Controlling Diseases/Insects/Mites/Nematodes and Weeds, Particularly Foliar and/or Soil Diseases” (priority 2005, published 2008)

Assays:
Phakopsora pachyrhizi [1] = assay: Greenhouse soybean rust test, plants at V6 stage, evaluated every 5 days; format: in vivo
Source text: Recent tests carried out in greenhouses the laboratory of FMC Quimica do Brasil Ltda. in Uberaba, MG, Brazil, show the highly fungicidal effect of said specific imidazole and/or triazole derivatives in combating diseases of plants, particularly against the attack by the fungus Phakopsora pachyrhizi on soybeans, as described hereinafter. […]
Equipment: a manual sprayer commonly used in agriculture with 2-liter capacity.
Dosages: 50 to 500 grams per hectare of the active compound Fluconazole per liter diluted in water.
Evaluations of the Effectiveness of the Product: The evaluations were made every 5 days after application of the product, in a total of 4 evaluations. As an evaluation parameter one utilized the severity of the disease (percentage of foliar area attacked by rust) according to the diagrammatic scale of the EMBRAPA (FIG. 1). […]
Dosages: 50 to 500 grams per hectare of the active compound Itraconazole per liter diluted in water.

Phakopsora pachyrhizi [2] = assay: Field evaluation of fungicides for control of soybean asian rust, Rondonópolis, MT, Brazil; format: in vivo
Protocol: Results of the 2nd step with defined crops (Evaluation of efficiency of fungicides for controlling soybean asian rust caused by Phakopsora pachyrhizi in the State of Mato Grosso, Brazil)
Several fungicides were evaluated in the control of soybean asian rust (Table 1A). The experiment was effected in Rondonópolis, MT, Brazil, harvest 2005/06, in a commercial area with soybean cultivar. The experiment consisted of 13 treatments (Table 1A).
The experimental outlining was random, in blocks, with 13 treatments and 4 repetitions. Each plot consisted of 6 lines of 6 m, spaced 0.45 m.
The culture traits were suited to the good development of the soybean crop, uniformly applied in the whole experiment.
The spraying was effected in stadiums R3 and R5.1, with coast CO2 sprayer provided with a JA-02-type beak, under a pressure of 0.31 MPa (45 psi), using 110 L of broth per ha. At the first application, the plants were presenting the beginning of rust symptoms at their foliar areas.
The rust was evaluated by analysing the percentage of foliar area affected by the disease, according to Godoy et al., in the plants of the three central lines. Evaluationa related to soybean injury and severity were effected in 14 and 21 days after the first application (DDA), by means of visual observation of the leaves of the plot plants.

[3] = Dose 1000 P.C. mL ha^−1, 14 days after the first application
[4] = Dose 1000 P.C. mL ha^−1, 21 days after the first application

For `CC(=O)N1CCN(c2ccc(OC[C@H]3CO[C@](Cn4ccnc4)(c4ccc(Cl)cc4Cl)O3)cc2)CC1` (relative stereo) [Ketoconazole, cis-1-acetyl-4-(4-((2-(2,4-dichloro-phenyl)-2-(1H-imidazol-1-ylmethyl)-1,3-dioxolan-4-yl)methoxyl)phenyl)piperazine], the “SEVERITY OF RUST (% IFA) 5 DAT” value (Phakopsora pachyrhizi [1]; 100 g ac/ha, soybeans) was 27 % IFA, the “SEVERITY OF RUST (% IFA) 10 DAT” value (Phakopsora pachyrhizi [1]; 100 g ac/ha, soybeans) was 20 % IFA and the “SEVERITY OF RUST (% IFA) 20 DAT” value (Phakopsora pachyrhizi [1]; 100 g ac/ha, soybeans) was 45 % IFA. For the same compound, the “SEVERITY OF RUST (% IFA) 5 DAT” value (Phakopsora pachyrhizi [1]; 200 g ac/ha, soybeans) was 10 % IFA, the “SEVERITY OF RUST (% IFA) 10 DAT” value (Phakopsora pachyrhizi [1]; 200 g ac/ha, soybeans) was 8 % IFA and the “SEVERITY OF RUST (% IFA) 20 DAT” value (Phakopsora pachyrhizi [1]; 200 g ac/ha, soybeans) was 18 % IFA. The “SEVERITY OF RUST (% IFA) 5 DAT” value (Phakopsora pachyrhizi [1]; 300 g ac/ha, soybeans) was 10 % IFA, the “SEVERITY OF RUST (% IFA) 10 DAT” value (Phakopsora pachyrhizi [1]; 300 g ac/ha, soybeans) was 6 % IFA and the “SEVERITY OF RUST (% IFA) 20 DAT” value (Phakopsora pachyrhizi [1]; 300 g ac/ha, soybeans) was 16 % IFA. For the same compound, the “SEVERITY OF RUST (% IFA) 5 DAT” value (Phakopsora pachyrhizi [1]; 400 g ac/ha, soybeans) was 11 % IFA, the “SEVERITY OF RUST (% IFA) 10 DAT” value (Phakopsora pachyrhizi [1]; 400 g ac/ha, soybeans) was 7 % IFA and the “SEVERITY OF RUST (% IFA) 20 DAT” value (Phakopsora pachyrhizi [1]; 400 g ac/ha, soybeans) was 15 % IFA. For the same compound, the “SEVERITY OF RUST (% IFA) 5 DAT” value (Phakopsora pachyrhizi [1]; 500 g ac/ha, soybeans) was 8 % IFA, the “SEVERITY OF RUST (% IFA) 10 DAT” value (Phakopsora pachyrhizi [1]; 500 g ac/ha, soybeans) was 4 % IFA and the “SEVERITY OF RUST (% IFA) 20 DAT” value (Phakopsora pachyrhizi [1]; 500 g ac/ha, soybeans) was 11 % IFA. The “effectiveness for controlling soybean rust” value (Phakopsora pachyrhizi [1]; from the dose of 200 grams of active ingredients per hectare) was “imparts effectiveness for controlling soybean rust”, the “Severity - affected foliar area (%) 14 DAA” value (“Severity … (%) 14 DAA” below) (Phakopsora pachyrhizi [2]; [3]) was 2.0% and the “Severity - affected foliar area (%) 21 DAA” value (“Severity … (%) 21 DAA” for short) (Phakopsora pachyrhizi [2]; [4]) was 7.0%.

`OC(Cn1cncn1)(Cn1cncn1)c1ccc(F)cc1F` [Fluconazole, alpha-(2,4-difluorophenyl)-alpha-(1H-1,2,4-trizole-1-ylmethyl)-1H-1,2,4-trizole-1-ethanol] was tested, and the “SEVERITY OF RUST (% IFA) 5 DAT” value (Phakopsora pachyrhizi [1]; Table 2: 50 g ac/ha, soybean) was 5 % IFA, the “SEVERITY OF RUST (% IFA) 10 DAT” value (Phakopsora pachyrhizi [1]; Table 2: 50 g ac/ha, soybean) was 10 % IFA and the “SEVERITY OF RUST (% IFA) 15 DAT” value (Phakopsora pachyrhizi [1]; Table 2: 50 g ac/ha, soybean) was 12 % IFA. The “SEVERITY OF RUST (% IFA) 20 DAT” value (Phakopsora pachyrhizi [1]; Table 2: 50 g ac/ha, soybean) was 12 % IFA, the “SEVERITY OF RUST (% IFA) 5 DAT” value (Phakopsora pachyrhizi [1]; Table 2: 100 g ac/ha, soybean) was 5 % IFA and the “SEVERITY OF RUST (% IFA) 10 DAT” value (Phakopsora pachyrhizi [1]; Table 2: 100 g ac/ha, soybean) was 7 % IFA. The “SEVERITY OF RUST (% IFA) 15 DAT” value (Phakopsora pachyrhizi [1]; Table 2: 100 g ac/ha, soybean) was 10 % IFA, the “SEVERITY OF RUST (% IFA) 20 DAT” value (Phakopsora pachyrhizi [1]; Table 2: 100 g ac/ha, soybean) was 11 % IFA and the “SEVERITY OF RUST (% IFA) 5 DAT” value (Phakopsora pachyrhizi [1]; Table 2: 150 g ac/ha, soybean) was 4 % IFA. For the same compound, the “SEVERITY OF RUST (% IFA) 10 DAT” value (Phakopsora pachyrhizi [1]; Table 2: 150 g ac/ha, soybean) was 6 % IFA, the “SEVERITY OF RUST (% IFA) 15 DAT” value (Phakopsora pachyrhizi [1]; Table 2: 150 g ac/ha, soybean) was 9 % IFA and the “SEVERITY OF RUST (% IFA) 20 DAT” value (Phakopsora pachyrhizi [1]; Table 2: 150 g ac/ha, soybean) was 10 % IFA. For the same compound, the “SEVERITY OF RUST (% IFA) 5 DAT” value (Phakopsora pachyrhizi [1]; Table 2: 250 g ac/ha, soybean) was 3 % IFA, the “SEVERITY OF RUST (% IFA) 10 DAT” value (Phakopsora pachyrhizi [1]; Table 2: 250 g ac/ha, soybean) was 7 % IFA and the “SEVERITY OF RUST (% IFA) 15 DAT” value (Phakopsora pachyrhizi [1]; Table 2: 250 g ac/ha, soybean) was 11 % IFA. The “SEVERITY OF RUST (% IFA) 20 DAT” value (Phakopsora pachyrhizi [1]; Table 2: 250 g ac/ha, soybean) was 10 % IFA, the “SEVERITY OF RUST (% IFA) 5 DAT” value (Phakopsora pachyrhizi [1]; Table 2: 500 g ac/ha, soybean) was 0 % IFA and the “SEVERITY OF RUST (% IFA) 10 DAT” value (Phakopsora pachyrhizi [1]; Table 2: 500 g ac/ha, soybean) was 0 % IFA. The “SEVERITY OF RUST (% IFA) 15 DAT” value (Phakopsora pachyrhizi [1]; Table 2: 500 g ac/ha, soybean) was 2 % IFA, the “SEVERITY OF RUST (% IFA) 20 DAT” value (Phakopsora pachyrhizi [1]; Table 2: 500 g ac/ha, soybean) was 4 % IFA and the “effective in controlling soybean rust” value (Phakopsora pachyrhizi [1]; from 50 grams of active ingredient per hectare) was “effective in controlling soybean rust”. The “Severity … (%) 14 DAA” value (Phakopsora pachyrhizi [2]; Dose 500 P.C. mL ha^−1, 14 days after the first application) was 0.6%, the “Severity … (%) 21 DAA” value (Phakopsora pachyrhizi [2]; Dose 500 P.C. mL ha^−1, 21 days after the first application) was 4.0% and the “Severity … (%) 14 DAA” value (Phakopsora pachyrhizi [2]; Dose 750 P.C. mL ha^−1, 14 days after the first application) was 0.5%. The “Severity … (%) 21 DAA” value (Phakopsora pachyrhizi [2]; Dose 750 P.C. mL ha^−1, 21 days after the first application) was 2.0%, the “Severity … (%) 14 DAA” value (Phakopsora pachyrhizi [2]; [3]) was 0.4% and the “Severity … (%) 21 DAA” value (Phakopsora pachyrhizi [2]; [4]) was 1.5%.
